Source: PMC8982737, “Discovery of S-217622, a Noncovalent Oral SARS-CoV-2 3CL Protease Inhibitor Clinical Candidate for Treating COVID-19” (Journal of Medicinal Chemistry, 2022)
Values joined by “and” are separate entries in the source; they are usually repeats but may differ in a detail not shown here. Equal values may be shown once. Read-outs that look alike come from different tables or passages of the source.

Tests used:
[1] = tested on: SARS-CoV-2; experiment: microbe, parasite or virus in culture; assay type: cell-based
[2] = tested on: SARS-CoV; experiment: microbe, parasite or virus in culture; assay type: cell-based; details: Severe acute respiratory syndrome coronavirus, VeroE6/TMPRSS2, read-out: EC50 against SARS-CoV
[3] = tested on: MERS-CoV; experiment: microbe, parasite or virus in culture; assay type: cell-based; details: Middle East respiratory syndrome-related coronavirus, VeroE6/TMPRSS2, read-out: EC50 against MERS-CoV
[4] = tested on: HCoV-229E; experiment: microbe, parasite or virus in culture; assay type: cell-based; details: Human coronavirus 229E
[5] = tested on: HCoV-OC43; experiment: microbe, parasite or virus in culture; assay type: cell-based
[6] = target: chymotrypsin; experiment: Human protease enzyme assay: chymotrypsin; assay type: biochemical
[7] = target: cathepsin L (Homo sapiens, UniProt P07711); experiment: Human protease enzyme assay: cathepsin L; assay type: biochemical
[8] = target: HIV-1 protease (Human immunodeficiency virus type 1 group M subtype B, UniProt P04585); experiment: Enzymatic inhibitory activity against HIV-1 protease; assay type: biochemical
[9] = tested on: SARS-CoV-2; experiment: Cellular antiviral activity in the presence of mouse serum; assay type: cell-based; details: Severe acute respiratory syndrome coronavirus 2; extrapolated to 100% mouse serum; read-out: protein-adjusted-EC50 (PA-EC50)
[10] = tested on: SARS-CoV-2 Gamma strain (hCoV-19/Japan/TY7-501/2021); assay type: in vivo, BALB/cAJcl mice
[11] = target: T1, human ether-a-go-go-related gene channel (Homo sapiens, UniProt Q12809); experiment: Human ether-a-go-go-related gene inhibition assay (patch clamp, CHO cells); assay type: cell-based; details: in vitro
T1 construct: expressed in transfected cells; host or cells: Chinese hamster ovary (CHO) cells

[12] = tested on: VeroE6/TMPRSS2 cells; details: African green monkey
[13] = male, Sprague-Dawley, rat, in vivo; for CL (total clearance): iv
[14] = target: T2, caspase-2 (Homo sapiens, UniProt P42575)
T2 sequence (P42575 1-452): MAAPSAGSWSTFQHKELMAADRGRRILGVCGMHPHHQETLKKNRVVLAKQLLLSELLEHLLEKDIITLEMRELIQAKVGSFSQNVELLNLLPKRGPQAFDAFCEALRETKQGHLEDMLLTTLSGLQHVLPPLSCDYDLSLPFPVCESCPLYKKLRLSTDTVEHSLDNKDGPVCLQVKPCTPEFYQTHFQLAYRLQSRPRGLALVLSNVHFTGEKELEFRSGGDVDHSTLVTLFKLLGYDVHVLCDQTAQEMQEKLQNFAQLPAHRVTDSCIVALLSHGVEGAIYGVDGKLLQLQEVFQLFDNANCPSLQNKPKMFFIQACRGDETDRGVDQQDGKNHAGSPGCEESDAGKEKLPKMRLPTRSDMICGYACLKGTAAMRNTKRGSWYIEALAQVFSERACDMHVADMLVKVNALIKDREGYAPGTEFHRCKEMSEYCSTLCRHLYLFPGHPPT

[15] = target: T3, cathepsin D (Homo sapiens, UniProt P07339); details: at 100 μM
[16] = target: T4, cathepsin G (Homo sapiens, UniProt P08311)
T4 sequence (P08311 21-255): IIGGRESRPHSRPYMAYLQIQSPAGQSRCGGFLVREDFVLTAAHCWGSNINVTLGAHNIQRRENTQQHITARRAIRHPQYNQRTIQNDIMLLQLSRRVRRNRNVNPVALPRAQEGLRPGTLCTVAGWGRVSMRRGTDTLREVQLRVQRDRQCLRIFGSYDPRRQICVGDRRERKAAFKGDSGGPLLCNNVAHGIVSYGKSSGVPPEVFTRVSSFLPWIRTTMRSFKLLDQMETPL

[17] = target: thrombin (Homo sapiens, UniProt P00734); details: at 100 μM
[18] = mouse, in vivo
[19] = tested on: TK6 cells
[20] = tested on: BALB/3T3 cells
[21] = in vivo; details: female, cynomolgus monkey
[22] = in vivo; details: male, beagle, dog
[23] = in vitro; details: African green monkey
[24] = target: T3, cathepsin D; experiment: biochemical; details: read-out: Inhibitory activity
[25] = Rat PK study; details: oral 1 μmol/5 mL/kg, n = 2, nonfasted, listed as S-217622
[26] = Dog PK study; details: intravenous 0.1 mg/0.2 mL/kg, n = 2, nonfasted
[27] = Monkey PK study; details: intravenous 0.1 mg/0.2 mL/kg, n = 2, nonfasted
[28] = target: SARS-CoV-2 3CL protease (Severe acute respiratory syndrome coronavirus 2, UniProt P0DTD1); experiment: biochemical; assay type: biochemical; details: for IC50: read-out: SARS-CoV-2 3CLpro IC50
[29] = both, human, microsomes, 0.5 h, 0.5 μM, pH 7.4
[30] = male, rat, microsomes, 0.5 h, 0.5 μM, pH 7.4
[31] = Severe acute respiratory syndrome coronavirus 2, VeroE6/TMPRSS2, strain hCoV-19/Japan/QHN001/2020 (Alpha, B.1.1.7), mean, read-out: EC50 on cytopathic effects
[32] = Severe acute respiratory syndrome coronavirus 2, VeroE6/TMPRSS2, strain hCoV-19/Japan/QHN002/2020 (Alpha, B.1.1.7), mean, read-out: EC50 on cytopathic effects
[33] = Severe acute respiratory syndrome coronavirus 2, VeroE6/TMPRSS2, strain hCoV-19/Japan/QK002/2020 (Alpha, B.1.1.7), mean, read-out: EC50 on cytopathic effects
[34] = Severe acute respiratory syndrome coronavirus 2, VeroE6/TMPRSS2, strain hCoV-19/Japan/TY7-501/2021 (Gamma, P.1), mean, read-out: EC50 on cytopathic effects
[35] = Severe acute respiratory syndrome coronavirus 2, VeroE6/TMPRSS2, strain hCoV-19/Japan/TY7-503/2021 (Gamma, P.1), mean, read-out: EC50 on cytopathic effects
[36] = Severe acute respiratory syndrome coronavirus 2, VeroE6/TMPRSS2, strain hCoV-19/Japan/TY8-612/2021 (Beta, B.1.351), mean, read-out: EC50 on cytopathic effects
[37] = Severe acute respiratory syndrome coronavirus 2, VeroE6/TMPRSS2, strain hCoV-19/Japan/TY11-927-P1/2021 (Delta, B.1.617.2), mean, read-out: EC50 on cytopathic effects
[38] = Severe acute respiratory syndrome coronavirus 2, VeroE6/TMPRSS2, strain hCoV-19/Japan/TY38-873/2021 (Omicron, B.1.1.529), mean, read-out: EC50 on cytopathic effects

Sequence of cathepsin L (P07711 114-333): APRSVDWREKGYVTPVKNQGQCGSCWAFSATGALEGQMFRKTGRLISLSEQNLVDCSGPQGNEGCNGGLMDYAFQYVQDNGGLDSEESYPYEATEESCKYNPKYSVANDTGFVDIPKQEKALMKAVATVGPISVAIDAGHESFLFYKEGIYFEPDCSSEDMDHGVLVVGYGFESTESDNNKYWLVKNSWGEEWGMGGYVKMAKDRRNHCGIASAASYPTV
T3 sequence (P07339 65-412): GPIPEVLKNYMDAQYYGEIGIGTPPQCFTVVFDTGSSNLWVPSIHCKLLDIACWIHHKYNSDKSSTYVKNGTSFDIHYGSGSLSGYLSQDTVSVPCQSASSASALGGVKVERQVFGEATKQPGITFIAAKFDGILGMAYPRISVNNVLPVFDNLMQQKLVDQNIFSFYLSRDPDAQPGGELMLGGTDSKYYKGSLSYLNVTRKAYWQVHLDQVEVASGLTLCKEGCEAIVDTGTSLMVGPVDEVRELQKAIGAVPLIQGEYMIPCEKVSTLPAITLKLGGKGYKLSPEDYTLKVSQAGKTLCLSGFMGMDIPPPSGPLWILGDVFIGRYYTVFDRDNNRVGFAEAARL
T1 sequence (Q12809 whole entry): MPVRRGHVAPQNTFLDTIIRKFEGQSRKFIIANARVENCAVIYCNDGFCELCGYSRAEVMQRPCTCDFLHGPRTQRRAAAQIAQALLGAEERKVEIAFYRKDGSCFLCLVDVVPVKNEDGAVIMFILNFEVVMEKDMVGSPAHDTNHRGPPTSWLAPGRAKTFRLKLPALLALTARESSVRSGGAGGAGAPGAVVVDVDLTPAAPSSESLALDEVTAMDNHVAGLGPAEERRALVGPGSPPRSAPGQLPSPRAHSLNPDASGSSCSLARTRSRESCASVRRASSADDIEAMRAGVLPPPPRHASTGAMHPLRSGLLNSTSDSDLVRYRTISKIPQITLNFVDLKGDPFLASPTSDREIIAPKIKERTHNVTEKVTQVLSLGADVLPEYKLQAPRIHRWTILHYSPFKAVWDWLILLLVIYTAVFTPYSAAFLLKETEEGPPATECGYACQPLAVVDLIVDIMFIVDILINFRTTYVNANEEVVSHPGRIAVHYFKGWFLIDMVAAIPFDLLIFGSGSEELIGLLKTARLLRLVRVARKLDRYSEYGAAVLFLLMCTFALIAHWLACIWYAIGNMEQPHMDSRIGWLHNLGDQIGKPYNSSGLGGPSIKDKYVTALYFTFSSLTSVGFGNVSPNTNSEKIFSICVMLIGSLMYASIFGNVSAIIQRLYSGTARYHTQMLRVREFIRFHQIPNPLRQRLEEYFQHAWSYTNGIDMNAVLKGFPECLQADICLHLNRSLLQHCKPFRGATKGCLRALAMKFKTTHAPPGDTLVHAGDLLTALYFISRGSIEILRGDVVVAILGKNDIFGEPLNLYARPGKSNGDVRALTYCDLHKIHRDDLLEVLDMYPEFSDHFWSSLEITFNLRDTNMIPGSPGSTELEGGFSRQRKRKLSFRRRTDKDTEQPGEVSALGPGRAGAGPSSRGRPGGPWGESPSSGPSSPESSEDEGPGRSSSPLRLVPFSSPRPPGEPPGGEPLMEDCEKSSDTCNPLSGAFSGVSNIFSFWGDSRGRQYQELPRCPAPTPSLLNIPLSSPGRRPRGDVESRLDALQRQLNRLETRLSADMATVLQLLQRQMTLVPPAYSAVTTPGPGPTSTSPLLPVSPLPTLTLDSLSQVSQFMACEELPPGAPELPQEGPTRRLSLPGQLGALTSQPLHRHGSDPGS

Cn1cnc(Cn2c(=O)[nH]/c(=N\c3cc4cn(C)nc4cc3Cl)n(Cc3cc(F)c(F)cc3F)c2=O)n1 [Compound 3, (6E)-6-[(6-Chloro-2-methyl-2H-indazol-5-yl)imino]-3-[(1-methyl-1H-1,2,4-triazol-3-yl)methyl]-1-(2,4,5-trifluorobenzyl)-1,3,5-triazinane-2,4-dione]
EC50 [1, 31]: 310 nM | EC50 [1, 32]: 460 nM | EC50 [1, 33]: 330 nM | EC50 [1, 34]: 500 nM | EC50 [1, 35]: 430 nM | EC50 [1, 36]: 400 nM | EC50 [1, 37]: 410 nM | EC50 [1, 38]: 290 nM | EC50 ([1]; Severe acute respiratory syndrome coronavirus 2, CPE inhibition assay, VeroE6/TMPRSS2 cells, read-out: VeroE6/TMPRSS2 EC50 (antiviral activity)): 370 nM | EC50 [2]: 210 nM | EC50 [3]: 1400 nM | EC50 ([4]; MRC5, CPE, MRC-5 cells, mean, read-out: EC50 against HCoV-229E): 5500 nM | EC90 ([5]; Betacoronavirus 1, OC43, MRC5, RT-qPCR, MRC-5 cells, mean, read-out: EC90 against HCoV-OC43): 74 nM | IC50 [6]: > 100000 nM | IC50 [7]: > 100000 nM | Inhibitory activity ([7]; at 100 μM): no inhibitory activity | inhibition at 100 µM ([7]; at 100 μM, read-out: Inhibitory activity): < 50% | IC50 [8]: > 100000 nM | inhibition at 100 µM ([8]; at 100 μM): < 50% | EC50 [9]: 3.93 µM and 2.09 µg/mL | lung viral titers ([10]; […], near lower limit of quantification): ~1.80 | effect on intrapulmonary (lung) viral titers ([10]; mouse, in vivo): reduced the intrapulmonary viral titers dose-dependently | ether-a-go-go-related gene inhibition [11]: no safety concerns | CC50 [12]: > 100000 nM | CL (total clearance) [13]: 1.70 mL/min/kg | IC50 ([14]; caspase 2): > 100000 nM | Inhibitory activity ([14]; caspase 2, at 100 μM): no inhibitory activity | Inhibitory activity [15]: no inhibitory activity | IC50 [16]: > 100000 nM | Inhibitory activity [17]: no inhibitory activity | simulated plasma concentration over time ([18]; BALB/cAJcl, 16 mg/kg): above the protein-adjusted-EC50 | plasma concentration [18]: increased dose-dependently | clastogenicity [19]: no safety concerns | phototoxicity [20]: no safety concerns | clearance ([21]; iv, 0.1 mg/kg): 0.29 mL/min/kg | bioavailability ([21]; po): 106% | clearance ([22]; iv, 0.1 mg/kg): 0.17 mL/min/kg | bioavailability ([22]; po): 64.7% | CC50 [23]: > 100000 nM | inhibition at 100 µM [24]: < 50% | Oral F (oral bioavailability) [25]: 97% | t1/2 ([26]; listed as S-217622): ~30 h | half-life ([26]; male, beagle, in vivo, iv, 0.1 mg/kg, t1/2, dog): 29.5 h | half-life ([27]; female, cynomolgus monkey, in vivo, iv, 0.1 mg/kg, t1/2, monkey): 10 h | t1/2 ([27]; monkey, listed as S-217622): approximately 10 h

CNC(=O)Cn1c(=O)nc(Nc2cc3sc(C)nc3cc2C)n(Cc2cc(F)c(F)c(F)c2)c1=O [Compound 15]
IC50 [28]: 3500 nM

CNC(=O)Cn1c(=O)[nH]/c(=N\c2cc3cn(C)nc3cc2Cl)n(Cc2cc(F)c(F)c(F)c2)c1=O [Compound 2, (4E)-2-{4-[(6-Chloro-2-methyl-2H-indazol-5-yl)imino]-2,6-dioxo-3-(3,4,5-trifluorobenzyl)-1,3,5-triazinan-1-yl)-N-methylacetamide]
IC50 [28]: 96 nM | improvement in enzymatic inhibitory activity ([28]; relative to hit compound 1): 90 fold | EC50 ([1]; Severe acute respiratory syndrome coronavirus 2, VeroE6/TMPRSS2, molecular formula strings csv, read-out: VeroE6/TMPRSS2 EC50): 12500 nM | HLM, percentage remaining after 30 min [29]: 94.8% | RLM, percentage remaining after 30 min [30]: 94.3% | CL (total clearance) [13]: 4.9 mL/min/kg | Oral F (oral bioavailability) [13]: 29.6%

CNC(=O)Cn1c(=O)[nH]/c(=N\c2ccc(OC)cc2C)n(Cc2cc(F)c(F)c(F)c2)c1=O [Compound 13]
IC50 [28]: 1900 nM

CNC(=O)Cn1c(=O)nc(Nc2cc3sc(C)nc3cc2C)n(Cc2cccc(F)c2)c1=O [Compound 18]
IC50 [28]: 29000 nM

CNC(=O)Cn1c(=O)[nH]/c(=N\c2ccc(OC)cc2)n(Cc2cc(F)c(F)c(F)c2)c1=O [Compound 14]
IC50 [28]: 2800 nM

CNC(=O)Cn1c(=O)[nH]/c(=N\c2ccc(OC(F)F)cc2C)n(Cc2cc(F)c(F)c(F)c2)c1=O [Compound 1, (4E)-2-(4-{[4-(Difluoromethoxy)-2-methylphenyl]imino}-2,6-dioxo-3-(3,4,5-trifluorobenzyl)-1,3,5-triazinan-1-yl)-N-methylacetamide]
IC50 [28]: 8600 nM | CL (total clearance) [13]: 7.3 mL/min/kg | Oral F (oral bioavailability) [13]: 111%

CNC(=O)Cn1c(=O)[nH]/c(=N\c2cc3sc(C)nc3cc2C)n(Cc2ccccc2F)c1=O [Compound 17]
IC50 [28]: 35000 nM

CCC(CC)COC(=O)[C@H](C)N[P@](=O)(OC[C@H]1O[C@@](C#N)(c2ccc3c(N)ncnn23)[C@H](O)[C@@H]1O)Oc1ccccc1 [Remdesivir, reference compound]
EC50 [1, 31]: 970 nM | EC50 [1, 32]: 990 nM | EC50 [1, 33]: 870 nM | EC50 [1, 34]: 2100 nM | EC50 [1, 35]: 1000 nM | EC50 [1, 36]: 1200 nM | EC50 [1, 37]: 1600 nM | EC50 [1, 38]: 1100 nM | EC50 ([1]; Severe acute respiratory syndrome coronavirus 2, VeroE6/TMPRSS2, read-out: EC50 on cytopathic effects): 1900 nM | EC50 [2]: 1300 nM | EC50 [3]: 1500 nM | EC50 ([4]; MRC5, read-out: EC50 against HCoV-229E): 41 nM | EC90 ([5]; Betacoronavirus 1, OC43, MRC5, read-out: EC90 against HCoV-OC43): 24 nM | CC50 [12]: > 100000 nM

CNC(=O)Cn1c(=O)[nH]/c(=N\c2cc3sc(C)nc3cc2C)n(Cc2ccccc2)c1=O [Compound 16]
IC50 [28]: 58000 nM

CNC(=O)Cn1c(=O)nc(Nc2cc3sc(C)nc3cc2C)n(Cc2ccc(F)cc2)c1=O [Compound 19]
IC50 [28]: 16000 nM
